{"source": "paper PMC9616412", "about": "“Nebulized fusion inhibitory peptide protects cynomolgus macaques from measles virus infection” (Nature Communications, 2022)", "key": {"[1]": {"test_system": "MeV IC323-eGFP", "experiment": "Haematological parameters during MeV infection", "format": "in vivo, Cynomolgus monkeys (Macaca fascicularis)", "experimental": "Supplementary figure S6. Evolution of the hematological parameters during the MeV infection. Major PBMC populations in blood of cynomolgus macaques were followed using Sysmex XT2000i Vet automatic analyzer, after nebulization of either 3 ml of 0.9% NaCl (C) or […] of HRC4 peptide (P) and MeV infection. Transient lymphopenia is observed in the absence of peptide protection.\nLymphocytes concentration (K/uL)\nMonocytes concentration (K/uL)"}, "[2]": {"experiment": "ELISA of HRC4 concentration in serum and urine"}, "[3]": {"test_system": "MeV IC323", "experiment": "Lethal intranasal MeV infection of CD150xIFNα/βR KO mice, survival", "details": "p < 0.0001, Mantel-Cox test", "description": "CD150xIFNα/βR KO mice[35],[36], generated by crossing hSLAM transgenic mice into an IFN Receptor α/β deficient background, were bred at the institute’s animal facility (PBES, ENS-Lyon, France) as heterozygotes for hSLAM transgenes. Three to 4 weeks old mice (males and females) were infected by intranasal route (i.n.) with 10 µl of MeV IC323 in both nares (10^4 PFU/mouse) under isoflurane anesthesia. CD150xIFNα/βR KO mice were given i.n. either 0.1 or 1 mg/kg of HRC4 peptide 24 h or 6 h before the infection. Control mice received the same number of administrations of the diluent. All animals were observed and weighed daily for four weeks and those showing clinical signs (neurological symptoms, ataxia, lethargy) were euthanized."}, "[4]": {"test_system": "MeV IC323-eGFP", "experiment": "MeV infection of NHP: clinical signs and fluorescent rash", "description": "Blood samples for hematology analyses were collected at days −1, 0, 1, 2, 3, 6, 9, 13, 16 and 28. Blood samples for flow cytometry analyses were collected at days −1, 3, 6, 9, 13, 16 and 28. Throat swabs were collected at days 0, 1, 2, 3, 6, 9, 13, 16 and 28, using cotton swabs. Oxygen saturation and heartbeat were monitored by a Radical-7® Pulse CO-Oximeter (Masimo) and breathing was monitored by a Dräger Primus anesthesia machine. Hematological parameters were measured on a Procyte DX (IDEXX) and biochemical parameters were evaluated on a Konelab 30 (Thermo Fisher). Development of fluorescent rash was followed using a FastGene Blue/Green LED Flashlight (Nippon genetics)."}, "[5]": {"test_system": "Vero cells", "experiment": "Cell toxicity assay (MTT)", "format": "cell-based", "details": "doses ranging from 0.5 nM to 4 µM, before and after nebulization, Vero-E6 cells", "experimental": "Vero cells were incubated at 37 °C in the presence or absence of the indicated peptides at indicated concentrations up to 5 μM HRC4 peptide as added into the media, and the cells were incubated a 37 °C. According to the manufacturer’s guidelines, the viability was determined after 24 h using the Vybrant MTT (3- (4, 5-dimethylthiazolyl-2) −2, 5-diphenyltetrazolium bromide) cell proliferation assay kit. TritonX-100 (1%) was used as a positive control. Absorbance was read at 540 nm using a Tecan M1000PRO microplate reader."}}}
{"smiles": "CC[C@H](C)[C@H](NC(=O)[C@H](C)NC(=O)[C@H](CC(N)=O)NC(=O)CNC(=O)[C@H](CC(C)C)NC(=O)[C@H](CC(N)=O)NC(=O)[C@@H](NC(=O)CNC(=O)[C@@H](NC(=O)[C@H](CC(=O)O)NC(=O)[C@H](CC(C)C)NC(=O)[C@H](CCCNC(=N)N)NC(=O)[C@H](CCC(=O)O)NC(=O)[C@H](CC(C)C)NC(=O)[C@H](CO)NC(=O)[C@@H](NC(=O)[C@@H]1CCCN1C(=O)[C@@H]1CCCN1)[C@@H](C)CC)C(C)C)[C@@H](C)O)C(=O)N[C@@H](C)C(=O)N[C@@H](CCCCN)C(=O)N[C@@H](CC(C)C)C(=O)N[C@@H](CCC(=O)O)C(=O)N[C@@H](CC(=O)O)C(=O)N[C@@H](C)C(=O)N[C@@H](CCCCN)C(=O)N[C@@H](CCC(=O)O)C(=O)N[C@@H](CC(C)C)C(=O)N[C@@H](CC(C)C)C(=O)N[C@@H](CCC(=O)O)C(=O)N[C@@H](CO)C(=O)N[C@@H](CO)C(=O)N[C@@H](CC(=O)O)C(=O)N[C@@H](CCC(N)=O)C(=O)N[C@H](C(=O)N[C@@H](CC(C)C)C(=O)N[C@@H](CCCNC(=N)N)C(=O)NCC(=O)N[C@@H](CO)C(=O)NCC(=O)N[C@@H](CO)C(=O)NCC(=O)N[C@@H](CSC1CC(=O)N(CCCC(=O)NCCOCCOCCOCCOCCC(=O)NCCN(CCNC(=O)CCOCCOCCOCCOCCNC(=O)CCCN2C(=O)CC(SC[C@H](NC(=O)CNC(=O)[C@H](CO)NC(=O)CNC(=O)[C@H](CO)NC(=O)CNC(=O)[C@H](CCCNC(=N)N)NC(=O)[C@H](CC(C)C)NC(=O)[C@@H](NC(=O)[C@H](CCC(N)=O)NC(=O)[C@H](CC(=O)O)NC(=O)[C@H](CO)NC(=O)[C@H](CO)NC(=O)[C@H](CCC(=O)O)NC(=O)[C@H](CC(C)C)NC(=O)[C@H](CC(C)C)NC(=O)[C@H](CCC(=O)O)NC(=O)[C@H](CCCCN)NC(=O)[C@H](C)NC(=O)[C@H](CC(=O)O)NC(=O)[C@H](CCC(=O)O)NC(=O)[C@H](CC(C)C)NC(=O)[C@H](CCCCN)NC(=O)[C@H](C)NC(=O)[C@@H](NC(=O)[C@H](C)NC(=O)[C@H](CC(N)=O)NC(=O)CNC(=O)[C@H](CC(C)C)NC(=O)[C@H](CC(N)=O)NC(=O)[C@@H](NC(=O)CNC(=O)[C@@H](NC(=O)[C@H](CC(=O)O)NC(=O)[C@H](CC(C)C)NC(=O)[C@H](CCCNC(=N)N)NC(=O)[C@H](CCC(=O)O)NC(=O)[C@H](CC(C)C)NC(=O)[C@H](CO)NC(=O)[C@@H](NC(=O)[C@@H]3CCCN3C(=O)[C@@H]3CCCN3)[C@@H](C)CC)C(C)C)[C@@H](C)O)[C@@H](C)CC)[C@@H](C)CC)C(=O)O)C2=O)CCO[C@H]2CC[C@@]3(C)C(=CC[C@H]4[C@@H]5CC[C@H]([C@H](C)CCCC(C)C)[C@@]5(C)CC[C@@H]43)C2)C1=O)C(=O)O)[C@@H](C)CC", "note": "(some centres unmarked) [HRC4]", "values": [{"measurement": "Duration of leukopenia", "setting": "[1]; HRC4-treated animal P2", "value": "9-13 days p.i."}, {"measurement": "Total white blood cell and lymphocyte counts", "setting": "[1]; day 6 following MeV infection, HRC4-treated macaques", "value": "remained stable"}, {"measurement": "level at time molar at 96 h", "setting": "[2]; cynomolgus monkey, serum, inhaled or intranasal, 4 mg/kg, [HRC4] nM, serum of NHP, 96 hours post nebulization, single values", "value": 0.285, "unit": "nM"}, {"measurement": "HRC4 in urine", "setting": "[2]; nebulized macaques", "value": "absent"}, {"measurement": "[HRC4]", "setting": "[2]; serum of NHP, 0 hours post nebulization, single values", "value": 0, "unit": "nM"}, {"measurement": "[HRC4]", "setting": "[2]; serum of NHP, 168 hours post nebulization, single values", "value": 0, "unit": "nM"}, {"measurement": "Survival rate", "setting": "[3]; HRC4 1 mg/kg intranasal six hours before infection with 10^4 PFU", "value": "significantly higher survival rate"}, {"measurement": "Survival rate", "setting": "[3]; HRC4 1 mg/kg intranasal twenty-four hours before infection with 10^4 PFU", "value": "significantly higher survival rate"}, {"measurement": "Abrogation of development of MeV infection", "setting": "[4]; absence of fluorescent rash, PBMC infection, viremia, viral shedding and MeV-specific immune response", "value": "two out of three animals"}, {"measurement": "GFP-fluorescent rash", "setting": "[4]; nebulized HRC4 24 h and 6 h before and 24 h after intra-tracheal 10^4 PFU MeV IC323-eGFP, 3 animals", "value": "no HRC4-treated animals"}, {"measurement": "Cytotoxicity", "setting": "[5]", "value": "No measurable cytotoxicity"}]}
